Laboratory results published in PMC12514245, “Impaired migration and lung invasion of human melanoma by a novel small molecule targeting the transmembrane domain of death receptor p75^NTR” (EMBO Molecular Medicine, 2025).

Test system: A875 shp75 cells
Assay: Wound healing cell motility assay, A875 shp75
Assay type: cell-based, human
Method: For wound healing assay, cells were grown until confluency and subjected to a wound across the cell mono-layer. Cells were then incubated with serum-free media either with DMSO or a small molecule (with or without 5 µM Q_VD_poH) and imaged at specific time-points. Cell migration is reflected as fold change in wound area over time.

Cc1cccc(-c2cncc(Nc3ccc(Br)c(Cl)c3Cl)n2)c1C [Np75-4A22]
Wound area (Fold) (A875 shp75, 1uM, 0 h, Mean): 1.000 Fold | Wound area (Fold) (A875 shp75, 1uM, 0 h, n1): 0.845 Fold | Wound area (Fold) (A875 shp75, 1uM, 0 h, n2): 1.081 Fold | Wound area (Fold) (A875 shp75, 1uM, 0 h, n3): 1.074 Fold | Wound area (Fold) (A875 shp75, 1uM, 3 h, Mean): 0.931 Fold | Wound area (Fold) (A875 shp75, 1uM, 3 h, n1): 0.916 Fold | Wound area (Fold) (A875 shp75, 1uM, 3 h, n2): 0.940 Fold | Wound area (Fold) (A875 shp75, 1uM, 3 h, n3): 0.936 Fold | Wound area (Fold) (A875 shp75, 1uM, 6 h, Mean): 0.862 Fold | Wound area (Fold) (A875 shp75, 1uM, 6 h, n1): 0.849 Fold | Wound area (Fold) (A875 shp75, 1uM, 6 h, n2): 0.873 Fold | Wound area (Fold) (A875 shp75, 1uM, 6 h, n3): 0.864 Fold | Wound area (Fold) (A875 shp75, 1uM, 9 h, Mean): 0.807 Fold | Wound area (Fold) (A875 shp75, 1uM, 9 h, n1): 0.787 Fold | Wound area (Fold) (A875 shp75, 1uM, 9 h, n2): 0.829 Fold | Wound area (Fold) (A875 shp75, 1uM, 9 h, n3): 0.805 Fold | Wound area (Fold) (A875 shp75, 1uM, 12 h, Mean): 0.763 Fold | Wound area (Fold) (A875 shp75, 1uM, 12 h, n1): 0.742 Fold | Wound area (Fold) (A875 shp75, 1uM, 12 h, n2): 0.785 Fold | Wound area (Fold) (A875 shp75, 1uM, 12 h, n3): 0.763 Fold | Wound area (Fold) (A875 shp75, 1uM, 15 h, Mean): 0.718 Fold | Wound area (Fold) (A875 shp75, 1uM, 15 h, n1): 0.696 Fold | Wound area (Fold) (A875 shp75, 1uM, 15 h, n2): 0.752 Fold | Wound area (Fold) (A875 shp75, 1uM, 15 h, n3): 0.705 Fold | Wound area (Fold) (A875 shp75, 1uM, 18 h, Mean): 0.698 Fold | Wound area (Fold) (A875 shp75, 1uM, 18 h, n1): 0.664 Fold | Wound area (Fold) (A875 shp75, 1uM, 18 h, n2): 0.709 Fold | Wound area (Fold) (A875 shp75, 1uM, 18 h, n3): 0.721 Fold | Wound area (Fold) (A875 shp75, 1uM, 21 h, Mean): 0.669 Fold | Wound area (Fold) (A875 shp75, 1uM, 21 h, n1): 0.640 Fold | Wound area (Fold) (A875 shp75, 1uM, 21 h, n2): 0.695 Fold | Wound area (Fold) (A875 shp75, 1uM, 21 h, n3): 0.673 Fold | Wound area (Fold) (A875 shp75, 1uM, 24 h, Mean): 0.638 Fold | Wound area (Fold) (A875 shp75, 1uM, 24 h, n1): 0.601 Fold | Wound area (Fold) (A875 shp75, 1uM, 24 h, n2): 0.671 Fold | Wound area (Fold) (A875 shp75, 1uM, 24 h, n3): 0.643 Fold | Wound area (Fold) (A875 shp75, 2uM, 0 h, Mean): 1.000 Fold | Wound area (Fold) (A875 shp75, 2uM, 0 h, n1): 0.9754 Fold | Wound area (Fold) (A875 shp75, 2uM, 0 h, n2): 1.0649 Fold | Wound area (Fold) (A875 shp75, 2uM, 0 h, n3): 0.9597 Fold | Wound area (Fold) (A875 shp75, 2uM, 3 h, Mean): 0.910 Fold | Wound area (Fold) (A875 shp75, 2uM, 3 h, n1): 0.9076 Fold | Wound area (Fold) (A875 shp75, 2uM, 3 h, n2): 0.9176 Fold | Wound area (Fold) (A875 shp75, 2uM, 3 h, n3): 0.9063 Fold | Wound area (Fold) (A875 shp75, 2uM, 6 h, Mean): 0.853 Fold | Wound area (Fold) (A875 shp75, 2uM, 6 h, n1): 0.8581 Fold | Wound area (Fold) (A875 shp75, 2uM, 6 h, n2): 0.8655 Fold | Wound area (Fold) (A875 shp75, 2uM, 6 h, n3): 0.836 Fold | Wound area (Fold) (A875 shp75, 2uM, 9 h, Mean): 0.814 Fold | Wound area (Fold) (A875 shp75, 2uM, 9 h, n1): 0.821 Fold | Wound area (Fold) (A875 shp75, 2uM, 9 h, n2): 0.8359 Fold | Wound area (Fold) (A875 shp75, 2uM, 9 h, n3): 0.7843 Fold | Wound area (Fold) (A875 shp75, 2uM, 12 h, Mean): 0.777 Fold | Wound area (Fold) (A875 shp75, 2uM, 12 h, n1): 0.789 Fold | Wound area (Fold) (A875 shp75, 2uM, 12 h, n2): 0.7939 Fold | Wound area (Fold) (A875 shp75, 2uM, 12 h, n3): 0.7491 Fold | Wound area (Fold) (A875 shp75, 2uM, 15 h, Mean): 0.752 Fold | Wound area (Fold) (A875 shp75, 2uM, 15 h, n1): 0.7699 Fold | Wound area (Fold) (A875 shp75, 2uM, 15 h, n2): 0.7822 Fold | Wound area (Fold) (A875 shp75, 2uM, 15 h, n3): 0.7049 Fold | Wound area (Fold) (A875 shp75, 2uM, 18 h, Mean): 0.727 Fold | Wound area (Fold) (A875 shp75, 2uM, 18 h, n1): 0.7451 Fold | Wound area (Fold) (A875 shp75, 2uM, 18 h, n2): 0.762 Fold | Wound area (Fold) (A875 shp75, 2uM, 18 h, n3): 0.6733 Fold | Wound area (Fold) (A875 shp75, 2uM, 21 h, Mean): 0.692 Fold | Wound area (Fold) (A875 shp75, 2uM, 21 h, n1): 0.7162 Fold | Wound area (Fold) (A875 shp75, 2uM, 21 h, n2): 0.7095 Fold | Wound area (Fold) (A875 shp75, 2uM, 21 h, n3): 0.6489 Fold | Wound area (Fold) (A875 shp75, 2uM, 24 h, Mean): 0.665 Fold | Wound area (Fold) (A875 shp75, 2uM, 24 h, n1): 0.7012 Fold | Wound area (Fold) (A875 shp75, 2uM, 24 h, n2): 0.6688 Fold | Wound area (Fold) (A875 shp75, 2uM, 24 h, n3): 0.6256 Fold
